Experimental data from paper PMC11876601 (Molecular Systems Biology, 2025).
Like-named read-outs stand apart in the source and are kept apart here.

Legend:
Assay in all cases: cells
AsPC-1 [1] = tested on: AsPC-1; parameters: ATPlite luminescence viability of PDAC cell lines, 11-dose single-agent curves, 4-parameter fit; conditions: Homo sapiens, ASPC1, 72 h, read-out: EC50 [nM]
In short: (§1)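 cells (1000 to 5000 per well) seeded 24 h before drug addition in a combination screen at 0.2% final DMSO. Controls were drug-free wells (negative) and 5 µM staurosporine (positive).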

BxPC-3 = tested on: BxPC-3; parameters: ATPlite luminescence viability of PDAC cell lines, 11-dose single-agent curves, 4-parameter fit; conditions: Homo sapiens, BXPC-3, 72 h, read-out: EC50 [nM]
In short: as §1

Colo-357 = tested on: Colo-357; parameters: ATPlite luminescence viability of PDAC cell lines, 11-dose single-agent curves, 4-parameter fit; conditions: Homo sapiens, COLO357, 72 h, read-out: EC50 [nM]
In short: as §1

Dan-G = tested on: Dan-G; parameters: ATPlite luminescence viability of PDAC cell lines, 11-dose single-agent curves, 4-parameter fit; conditions: 72 h, read-out: EC50 [nM]
In short: as §1

HPDE = tested on: HPDE; parameters: ATPlite luminescence viability of PDAC cell lines, 11-dose single-agent curves, 4-parameter fit; conditions: HPDE, 72 h, read-out: EC50 [nM]
In short: as §1

HuP-T4 = tested on: HuP-T4; parameters: ATPlite luminescence viability of PDAC cell lines, 11-dose single-agent curves, 4-parameter fit; conditions: Homo sapiens, HuP-T4, 72 h, read-out: EC50 [nM]
In short: as §1

MiaPaCa-2 = tested on: MiaPaCa-2; parameters: ATPlite luminescence viability of PDAC cell lines, 11-dose single-agent curves, 4-parameter fit; conditions: Homo sapiens, MIA PaCa-2, 72 h, read-out: EC50 [nM]
In short: as §1

PANC-1 [2] = tested on: PANC-1; parameters: ATPlite luminescence viability of PDAC cell lines, 11-dose single-agent curves, 4-parameter fit; conditions: Homo sapiens, PANC-1, 72 h, read-out: EC50 [nM]
In short: as §1

PSN-1 = tested on: PSN-1; parameters: ATPlite luminescence viability of PDAC cell lines, 11-dose single-agent curves, 4-parameter fit; conditions: Homo sapiens, PSN1, 72 h, read-out: EC50 [nM]
In short: as §1

PaTu-8988-T = tested on: PaTu-8988-T; parameters: ATPlite luminescence viability of PDAC cell lines, 11-dose single-agent curves, 4-parameter fit; conditions: Homo sapiens, PaTu 8988t, 72 h, read-out: EC50 [nM]
In short: as §1

Suit2-07 = tested on: Suit2-07; parameters: ATPlite luminescence viability of PDAC cell lines, 11-dose single-agent curves, 4-parameter fit; conditions: 72 h, read-out: EC50 [nM]
In short: as §1

Capan-1 [3] = tested on: Capan-1; parameters: Viability of PDAC cell lines, ATPlite luminescence, 11-dose single-agent curve fit; conditions: Homo sapiens, CAPAN-1, 72 h, read-out: EC50 [nM]
In short: (§2)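 cells (1000 to 5000 per well) seeded 24 h before drug addition in a screen at 0.2% final DMSO. Controls were drug-free wells (negative) and 5 µM staurosporine (positive).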

FAMPAC [4] = tested on: FAMPAC; parameters: Viability of PDAC cell lines, ATPlite luminescence, 11-dose single-agent curve fit; conditions: 72 h, read-out: EC50 [nM]
In short: as §2

Capan-1 [5] = tested on: Capan-1; parameters: ATPlite luminescence viability of PDAC cell lines, 11-dose single-agent curves, 4-parameter fit; conditions: Homo sapiens, CAPAN-1, 72 h, read-out: EC50 [nM]
In short: as §1

FAMPAC [6] = tested on: FAMPAC; parameters: ATPlite luminescence viability of PDAC cell lines, 11-dose single-agent curves, 4-parameter fit; conditions: 72 h, read-out: EC50 [nM]
In short: as §1

AsPC-1 [7] = tested on: AsPC-1; parameters: Viability of PDAC cell lines, ATPlite luminescence, 11-dose single-agent curve fit; conditions: Homo sapiens, ASPC1, 72 h, read-out: EC50 [nM]
In short: as §2

PANC-1 [8] = tested on: PANC-1; parameters: Viability of PDAC cell lines, ATPlite luminescence, 11-dose single-agent curve fit; conditions: Homo sapiens, PANC-1, 72 h, read-out: EC50 [nM]
In short: as §2

Compound | EC50 (AsPC-1 [1]) [nM] | EC50 (BxPC-3) [nM] | EC50 (Colo-357) [nM] | EC50 (Dan-G) [nM] | EC50 (HPDE) [nM] | EC50 (HuP-T4) [nM] | EC50 (MiaPaCa-2) [nM] | EC50 (PANC-1 [2]) [nM] | EC50 (PSN-1) [nM] | EC50 (PaTu-8988-T) [nM] | EC50 (Suit2-07) [nM] | EC50 (Capan-1 [3]) [nM] | EC50 (FAMPAC [4]) [nM] | EC50 (Capan-1 [5]) [nM] | EC50 (FAMPAC [6]) [nM] | EC50 (AsPC-1 [7]) [nM] | EC50 (PANC-1 [8]) [nM]
CC(C)NC(=O)[C@H]1CC[C@@H](n2/c(=N/C(=O)c3ccc(F)cc3)[nH]c3ccc(CN4CCC(C(C)(C)O)CC4)cc32)CC1 [Belizatinib] | 496 | 1420 | 7390 | 4630 | 1270 | > 10000 | 308 | 1860 | 1340 | 580 | 599 | 8120 | 3220 |  |  |  | 
CN1CCN(c2ccc3nc(-c4c(N)c5c(F)cccc5[nH]c4=O)[nH]c3c2)CC1 [Dovitinib] | > 10000 |  | 4350 | 3430 | 4540 | 3570 | 1680 | 4250 | 2720 | 3150 | 863 |  |  | 4250 | 2170 |  | 
COc1cc(Nc2c(C#N)cnc3cc(OCCCN4CCN(C)CC4)c(OC)cc23)c(Cl)cc1Cl [Bosutinib] | 5990 | 2170 | 5090 | 2910 | 2140 | > 10000 | > 10000 | > 10000 | 4490 | > 10000 | 2330 |  |  | 6130 | 3030 |  | 
CN1CCN(c2ccc(C(=O)Nc3n[nH]c4ccc(Cc5cc(F)cc(F)c5)cc34)c(NC3CCOCC3)c2)CC1 [Entrectinib] | 5960 | 3500 | 4900 | > 10000 | 3900 | > 10000 | 2720 | 5790 | > 10000 | > 10000 | > 10000 |  |  | 6260 | 5900 |  | 
C=CC(=O)Nc1cccc(Nc2nc(Nc3ccc(N4CCN(C(C)=O)CC4)cc3OC)ncc2C(F)(F)F)c1 [Rociletinib] | 8730 | 4820 | 7270 | 6290 | 3460 | > 10000 | 2370 | 7120 | 2080 | 4940 | 2750 |  |  | 6270 | 3580 |  | 
Cc1nc(Nc2ncc(C(=O)Nc3c(C)cccc3Cl)s2)cc(N2CCN(CCO)CC2)n1 [Dasatinib] |  | 78.9 | 4740 | 8640 | 580 | 139 | 4.67 |  | 37.1 | 16.6 | 2600 |  |  | 704 | 48.5 | > 10000 | 446
Cc1ccc(C(=O)Nc2ccc(CN3CCN(C)CC3)c(C(F)(F)F)c2)cc1C#Cc1cnc2cccnn12 [Ponatinib] | 1160 | 739 | 9250 | 1200 | 1930 | > 10000 | 335 | > 10000 | 620 | 357 | 618 |  |  | > 10000 | 830 |  | 
